# Test results taken from PMC4731470, “Inhibitory Effect of Bridged Nucleosides on Thermus aquaticus DNA Polymerase and Insight into the Binding Interactions” (PLoS ONE, 2016).
# Columns and labels:
# Taq DNA polymerase [1] = target: T1, Taq DNA polymerase (Thermus aquaticus, UniProt P19821); test: TaqMan qPCR kinetics (double-reciprocal plot); IC50 also by TaqMan qPCR and EvaGreen primer extension assay; assay type: biochemical
# T1 construct: gene polA
# Taq DNA polymerase [2] = target: T1, Taq DNA polymerase; test: TaqMan qPCR (IC50 […]); EvaGreen primer extension assay (IC50 […]); assay type: biochemical
# T1 sequence (P19821 whole entry): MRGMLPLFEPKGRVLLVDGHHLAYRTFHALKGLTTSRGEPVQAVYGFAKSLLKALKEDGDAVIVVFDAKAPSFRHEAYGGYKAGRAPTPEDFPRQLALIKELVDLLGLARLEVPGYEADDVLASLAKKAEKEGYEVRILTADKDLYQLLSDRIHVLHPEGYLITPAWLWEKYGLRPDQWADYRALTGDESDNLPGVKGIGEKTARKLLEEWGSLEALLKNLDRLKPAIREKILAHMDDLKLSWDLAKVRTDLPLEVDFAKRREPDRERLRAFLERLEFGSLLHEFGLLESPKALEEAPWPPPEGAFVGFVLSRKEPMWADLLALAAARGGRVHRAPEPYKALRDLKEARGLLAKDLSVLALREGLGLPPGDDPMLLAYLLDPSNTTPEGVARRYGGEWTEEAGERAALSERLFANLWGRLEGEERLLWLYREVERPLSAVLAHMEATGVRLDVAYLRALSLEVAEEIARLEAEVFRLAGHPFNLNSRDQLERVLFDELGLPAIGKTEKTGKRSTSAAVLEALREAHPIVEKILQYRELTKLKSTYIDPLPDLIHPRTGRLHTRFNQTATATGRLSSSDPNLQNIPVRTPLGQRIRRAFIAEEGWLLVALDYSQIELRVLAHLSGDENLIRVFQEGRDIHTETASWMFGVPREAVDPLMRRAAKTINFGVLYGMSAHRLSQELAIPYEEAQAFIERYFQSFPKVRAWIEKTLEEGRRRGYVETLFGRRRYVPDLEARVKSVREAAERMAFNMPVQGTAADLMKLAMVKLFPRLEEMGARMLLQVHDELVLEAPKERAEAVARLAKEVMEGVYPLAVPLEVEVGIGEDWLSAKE
Ki (Taq DNA polymerase [1]) [µM],IC50 (Taq DNA polymerase [2]) [µM],Structure (SMILES)
9.7 ± 1.1,–,"Cc1cn([C@@H]2O[C@@]3(CO)CO[C@@H]2[C@@H]3O)c(=O)[nH]c1=O [2',4'-bridged thymidine]"
–,300 ± 100,Nc1ccn([C@H]2CC[C@@H](COP(=O)(O)OP(=O)(O)OP(=O)(O)O)O2)c(=O)n1 [ddCTP]
